# Measured values reported in patent US20110040086A1, “Novel Beta-Lactam Antibiotics, Methods for Their Production, and Their Use” (DRITTE PATENTPORTFOLIO BETEILIGUNGSGESELLSCHAFT MB, priority 2007, published 2011).
# Tests used:
# [1] = test system: Bacillus megaterium SBUG 1152; test: agar diffusion test (Test System 1, antimicrobial effect); format: cell-based
# How it was run: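 B. megaterium SBUG 1152 grown overnight (17 h, 37° C., 180 rpm) and seeded at 10^6 cells per 10 ml nutrient agar. Compound at 10, 50 and 100 μg, dissolved in methanol or water, applied to paper discs. Inhibition-zone diameter (mm) read after 20 h at 37° C.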
# [2] = test system: Escherichia coli SBUG 1135; test: as above; format: cell-based; design: key: r = resistant (no detectable zone of inhibition)
# How it was run: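 E. coli SBUG 1135 grown 17 h at 37° C, 180 rpm, diluted 1:100 and seeded in nutrient agar at ~10^6 cells. Discs loaded with 10, 50 or 100 μg compound (methanol or water); inhibition-zone diameter (mm) read after 20 h at 37° C.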
# [3] = test system: Staphylococcus aureus 315; test: agar diffusion test (Test System II, multi-resistant germs); format: cell-based; design: key: r = resistant (no detectable zone of inhibition)
# How it was run: (§1)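 Discs loaded with 10-100 μg compound on McFarland 0.5 lawns of Müller-Hinton agar II; zone diameters read after 18-20 h at 37 °C.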
# S. aureus 33490 = test: as above; format: cell-based, Staphylococcus aureus; design: key: r = resistant (no detectable zone of inhibition)
# How it was run: as §1
# S. aureus 34289 = test: as above; format: cell-based, Staphylococcus aureus; design: key: r = resistant (no detectable zone of inhibition)
# How it was run: as §1
# S. aureus 36881 = test: as above; format: cell-based, Staphylococcus aureus; design: key: r = resistant (no detectable zone of inhibition)
# How it was run: as §1
# S. aureus 39105 = test: as above; format: cell-based, Staphylococcus aureus; design: key: r = resistant (no detectable zone of inhibition)
# How it was run: as §1
# S. aureus 520 = test: as above; format: cell-based, Staphylococcus aureus; design: key: r = resistant (no detectable zone of inhibition)
# How it was run: as §1
# S. aureus 526 = test: as above; format: cell-based, Staphylococcus aureus; design: key: r = resistant (no detectable zone of inhibition)
# How it was run: as §1
# [4] = test system: S. aureus North Germany strain; test: as above; format: cell-based, Staphylococcus aureus; design: key: r = resistant (no detectable zone of inhibition)
# How it was run: as §1
# S. aureus 38418 = test: as above; format: cell-based, Staphylococcus aureus
# How it was run: as §1
# S. aureus ATCC 6538 = test: as above; format: cell-based, Staphylococcus aureus
# How it was run: as §1
# S. epidermidis 125 = test: as above; format: cell-based, Staphylococcus epidermidis; design: key to Diameter of zone of inhibition: r = resistant (no detectable zone of inhibition)
# How it was run: as §1
# [5] = test system: Staphylococcus aureus ATCC 6538; test: mouse infected with Staphylococcus aureus infection model (survival); format: in vivo, BALB/c mice; details: 2 × 0.5 mg (25 mg/kg) i.p.
# How it was run: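 BALB/c mice, at least 3 per group, made neutropenic with cyclophosphamide i.p. (250 mg/kg day 0, 100 mg/kg day 2). Infected i.p. on day 3 with 10 μl/g of S. aureus suspension at OD550 0.6 (ca. 10^10-10^12 CFU). Antibiotic given i.p. in PBS with 3% DMSO 30 min post-infection, then repeated; survival recorded.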
molecule,measurement,setting,value
"7-{2-2-(2-hydroxyethylcarbamoyl)-3,6-dioxyocyclohexa-1,4-dienylamino]-2-(4-hydroxyphenyl)-acetylamino}-desacetoxycephalosporanic acid [1a]",Diameter of zone of inhibition,[1]; Quantity n 0.019,22 mm
same,Diameter of zone of inhibition,[1]; Quantity n 0.1,30 mm
same,Diameter of zone of inhibition,[1]; Quantity n 0.19,32 mm
same,Diameter of zone of inhibition,[2]; Quantity n 0.019,r^2
same,Diameter of zone of inhibition,[2]; Quantity n 0.1,14 mm
same,Diameter of zone of inhibition,[2]; Quantity n 0.19,16 mm
same,Diameter of zone of inhibition,[3]; Quantity n 0.019,r
same,Diameter of zone of inhibition,[3]; Quantity n 0.1,10 mm
same,Diameter of zone of inhibition,[3]; Quantity n 0.19,16 mm
same,Diameter of zone of inhibition,S. aureus 33490; Quantity n [μmol] 0.019,r
same,Diameter of zone of inhibition,S. aureus 33490; Quantity n [μmol] 0.1,14 mm
same,Diameter of zone of inhibition,S. aureus 33490; Quantity n [μmol] 0.19,18 mm
same,Diameter of zone of inhibition,S. aureus 34289; Quantity n [mol] 0.019,r
same,Diameter of zone of inhibition,S. aureus 34289; Quantity n [mol] 0.1,r
same,Diameter of zone of inhibition,S. aureus 34289; Quantity n [mol] 0.19,r
same,Diameter of zone of inhibition,S. aureus 36881; Quantity n 0.019,r
same,Diameter of zone of inhibition,S. aureus 36881; Quantity n 0.1,10 mm
same,Diameter of zone of inhibition,S. aureus 36881; Quantity n 0.19,16 mm
same,Diameter of zone of inhibition,S. aureus 39105; Quantity n 0.019,r
same,Diameter of zone of inhibition,S. aureus 39105; Quantity n 0.1,r
same,Diameter of zone of inhibition,S. aureus 39105; Quantity n 0.19,14 mm
same,Diameter of zone of inhibition,S. aureus 520; Quantity n [mol] 0.019,r
same,Diameter of zone of inhibition,S. aureus 520; Quantity n [mol] 0.1,r
same,Diameter of zone of inhibition,S. aureus 520; Quantity n [mol] 0.19,12 mm
same,Diameter of zone of inhibition,S. aureus 526; Quantity n 0.019,r
same,Diameter of zone of inhibition,S. aureus 526; Quantity n 0.1,r
same,Diameter of zone of inhibition,S. aureus 526; Quantity n 0.19,10 mm
same,Diameter of zone of inhibition,[4]; Quantity n 0.019,r
same,Diameter of zone of inhibition,[4]; Quantity n 0.1,16 mm
same,Diameter of zone of inhibition,[4]; Quantity n 0.19,18 mm
same,Diameter of zone of inhibition,S. aureus 38418; Quantity n [mol] 0.019,14 mm
same,Diameter of zone of inhibition,S. aureus 38418; Quantity n [mol] 0.1,24 mm
same,Diameter of zone of inhibition,S. aureus 38418; Quantity n [mol] 0.19,26 mm
same,Diameter of zone of inhibition,S. aureus ATCC 6538; Quantity n 0.019,20 mm
same,Diameter of zone of inhibition,S. aureus ATCC 6538; Quantity n 0.1,28 mm
same,Diameter of zone of inhibition,S. aureus ATCC 6538; Quantity n 0.19,30 mm
same,Diameter of zone of inhibition,S. epidermidis 125; Quantity n 0.019,14 mm
same,Diameter of zone of inhibition,S. epidermidis 125; Quantity n 0.1,24 mm
same,Diameter of zone of inhibition,S. epidermidis 125; Quantity n 0.19,28 mm
same,Survival/tested mice n/n,[5],9/9
"7-{2-[2-(2-hydroxyethylcarbamoyl)-3,6-dioxocyclohexa-1,4-dienylamino]-2-phenyl-acetylamino}-desacetoxycephalosporanic acid [1e]",Diameter of zone of inhibition,[1]; Quantity n 0.029,20 mm
same,Diameter of zone of inhibition,[1]; Quantity n 0.14,28 mm
same,Diameter of zone of inhibition,[1]; Quantity n 0.29,32 mm
same,Diameter of zone of inhibition,[2]; Quantity n 0.029,r^2
same,Diameter of zone of inhibition,[2]; Quantity n 0.14,16 mm
same,Diameter of zone of inhibition,[2]; Quantity n 0.29,18 mm
same,Diameter of zone of inhibition,[3]; Quantity n 0.029,r
same,Diameter of zone of inhibition,[3]; Quantity n 0.14,r
same,Diameter of zone of inhibition,[3]; Quantity n 0.29,12 mm
same,Diameter of zone of inhibition,S. aureus 33490; Quantity n [μmol] 0.029,8 mm
same,Diameter of zone of inhibition,S. aureus 33490; Quantity n [μmol] 0.14,16 mm
same,Diameter of zone of inhibition,S. aureus 33490; Quantity n [μmol] 0.29,20 mm
same,Diameter of zone of inhibition,S. aureus 34289; Quantity n [mol] 0.029,r
same,Diameter of zone of inhibition,S. aureus 34289; Quantity n [mol] 0.14,r
same,Diameter of zone of inhibition,S. aureus 34289; Quantity n [mol] 0.29,r
same,Diameter of zone of inhibition,S. aureus 36881; Quantity n 0.029,r
same,Diameter of zone of inhibition,S. aureus 36881; Quantity n 0.14,r
same,Diameter of zone of inhibition,S. aureus 36881; Quantity n 0.29,14 mm
same,Diameter of zone of inhibition,S. aureus 39105; Quantity n 0.029,r
same,Diameter of zone of inhibition,S. aureus 39105; Quantity n 0.14,r
same,Diameter of zone of inhibition,S. aureus 39105; Quantity n 0.29,14 mm
same,Diameter of zone of inhibition,S. aureus 520; Quantity n [mol] 0.029,r
same,Diameter of zone of inhibition,S. aureus 520; Quantity n [mol] 0.14,r
same,Diameter of zone of inhibition,S. aureus 520; Quantity n [mol] 0.29,r
same,Diameter of zone of inhibition,S. aureus 526; Quantity n 0.029,r
same,Diameter of zone of inhibition,S. aureus 526; Quantity n 0.14,r
same,Diameter of zone of inhibition,S. aureus 526; Quantity n 0.29,r
same,Diameter of zone of inhibition,[4]; Quantity n 0.029,r
same,Diameter of zone of inhibition,[4]; Quantity n 0.14,10 mm
same,Diameter of zone of inhibition,[4]; Quantity n 0.29,16 mm
same,Diameter of zone of inhibition,S. aureus 38418; Quantity n [mol] 0.029,14 mm
same,Diameter of zone of inhibition,S. aureus 38418; Quantity n [mol] 0.14,26 mm
same,Diameter of zone of inhibition,S. aureus 38418; Quantity n [mol] 0.29,30 mm
same,Diameter of zone of inhibition,S. aureus ATCC 6538; Quantity n 0.029,20 mm
same,Diameter of zone of inhibition,S. aureus ATCC 6538; Quantity n 0.14,30 mm
same,Diameter of zone of inhibition,S. aureus ATCC 6538; Quantity n 0.29,32 mm
same,Diameter of zone of inhibition,S. epidermidis 125; Quantity n 0.029,r
same,Diameter of zone of inhibition,S. epidermidis 125; Quantity n 0.14,24 mm
same,Diameter of zone of inhibition,S. epidermidis 125; Quantity n 0.29,28 mm
same,Survival/tested mice n/n,[5],3/3
"CC1=C(C(=O)O)N2C(=O)C(NC(=O)C(NC3=C(C(N)=O)C(=O)C=CC3=O)c3ccccc3)C2SC1 (stereo not drawn) [1f, 7-[2-(2-carbamoyl-3,6-dioxocyclohexa-1,4-dienylamino)-2-phenyl-acetylamino]-desacetoxycephalosporanic acid]",Diameter of zone of inhibition,[1]; Quantity n 0.02,20 mm
same,Diameter of zone of inhibition,[1]; Quantity n 0.1,30 mm
same,Diameter of zone of inhibition,[1]; Quantity n 0.2,32 mm
same,Diameter of zone of inhibition,[2]; Quantity n 0.02,r
same,Diameter of zone of inhibition,[2]; Quantity n 0.1,14 mm
same,Diameter of zone of inhibition,[2]; Quantity n 0.2,18 mm
same,Diameter of zone of inhibition,[3]; Quantity n 0.02,r
same,Diameter of zone of inhibition,[3]; Quantity n 0.1,r
same,Diameter of zone of inhibition,[3]; Quantity n 0.2,10 mm
same,Diameter of zone of inhibition,S. aureus 33490; Quantity n [μmol] 0.02,r
same,Diameter of zone of inhibition,S. aureus 33490; Quantity n [μmol] 0.1,14 mm
same,Diameter of zone of inhibition,S. aureus 33490; Quantity n [μmol] 0.2,16 mm
same,Diameter of zone of inhibition,S. aureus 34289; Quantity n [mol] 0.02,r
same,Diameter of zone of inhibition,S. aureus 34289; Quantity n [mol] 0.1,r
same,Diameter of zone of inhibition,S. aureus 34289; Quantity n [mol] 0.2,r
same,Diameter of zone of inhibition,S. aureus 36881; Quantity n 0.02,r
same,Diameter of zone of inhibition,S. aureus 36881; Quantity n 0.1,r
same,Diameter of zone of inhibition,S. aureus 36881; Quantity n 0.2,14 mm
same,Diameter of zone of inhibition,S. aureus 39105; Quantity n 0.02,r
same,Diameter of zone of inhibition,S. aureus 39105; Quantity n 0.1,r
same,Diameter of zone of inhibition,S. aureus 39105; Quantity n 0.2,12 mm
same,Diameter of zone of inhibition,S. aureus 520; Quantity n [mol] 0.02,r
same,Diameter of zone of inhibition,S. aureus 520; Quantity n [mol] 0.1,r
same,Diameter of zone of inhibition,S. aureus 520; Quantity n [mol] 0.2,r
same,Diameter of zone of inhibition,S. aureus 526; Quantity n 0.02,r
same,Diameter of zone of inhibition,S. aureus 526; Quantity n 0.1,r
same,Diameter of zone of inhibition,S. aureus 526; Quantity n 0.2,r
same,Diameter of zone of inhibition,[4]; Quantity n 0.02,r
same,Diameter of zone of inhibition,[4]; Quantity n 0.1,r
same,Diameter of zone of inhibition,[4]; Quantity n 0.2,10 mm
same,Diameter of zone of inhibition,S. aureus 38418; Quantity n [mol] 0.02,14 mm
same,Diameter of zone of inhibition,S. aureus 38418; Quantity n [mol] 0.1,24 mm
same,Diameter of zone of inhibition,S. aureus 38418; Quantity n [mol] 0.2,30 mm
same,Diameter of zone of inhibition,S. aureus ATCC 6538; Quantity n 0.02,20 mm
same,Diameter of zone of inhibition,S. aureus ATCC 6538; Quantity n 0.1,30 mm
same,Diameter of zone of inhibition,S. aureus ATCC 6538; Quantity n 0.2,34 mm
same,Diameter of zone of inhibition,S. epidermidis 125; Quantity n 0.02,10 mm
same,Diameter of zone of inhibition,S. epidermidis 125; Quantity n 0.1,22 mm
same,Diameter of zone of inhibition,S. epidermidis 125; Quantity n 0.2,28 mm
same,Survival/tested mice n/n,[5],3/3
